Reference: patent US20220380801A1, “TRIPARTITE SYSTEMS FOR PROTEIN DIMERIZATION AND METHODS OF USE” (priority 2019, published 2022)

What was measured:
Assay in all cases: Octet RED384 simeprevir affinity
Format in all cases: binding
HCV NS3/4A D168E PR = HCV NS3/4A D168E PR (Hepatitis C virus subtype 1a, UniProt A8DG50, A1066T/D1194E/I1043Q/I1044E/L1039E/L1040E/L1047Q/S1165A, form not given)
Protocol: (§1) The biotinylated HCV NS3/4A PR (S139A), HCV NS3/4A K136D PR, HCV NS3/4A K136N PR and HCV NS3/4A D168E PR were loaded on High Precision Streptavidin (SAX) biosensors at a concentration of 2 μg/ml in 10 mM Hepes pH 7.4, 150 mM NaCl, 0.05% Surfactant P20, 0.3% DMSO. The simeprevir was diluted […] (46.88-3,000 nM) in the same buffer and the loaded biosensors were dipped into the simeprevir samples for 180 sec to measure the association. For the dissociation the biosensors were dipped into the buffer for 600 sec. The traces were analysed using ForteBio Data Analysis software and fit globally using a 1:1 binding model.

HCV NS3/4A K136N PR = HCV NS3/4A K136N PR (Hepatitis C virus subtype 1a, UniProt A8DG50, A1066T/I1043Q/I1044E/K1162N/L1039E/L1040E/L1047Q/S1165A, form not given)
Protocol: as §1

HCV NS3/4A PR (S139A) = HCV NS3/4A PR (S139A) (Hepatitis C virus subtype 1a, UniProt A8DG50, A1066T/I1043Q/I1044E/L1039E/L1040E/L1047Q/S1165A, form not given); conditions: WT (S139A)
Protocol: as §1

HCV NS3/4A K136D PR = HCV NS3/4A K136D PR (Hepatitis C virus subtype 1a, UniProt A8DG50, A1066T/I1043Q/I1044E/K1162D/L1039E/L1040E/L1047Q/S1165A, form not given)
Protocol: as §1

For `COc1ccc2c(O[C@@H]3C[C@H]4C(=O)N[C@]5(C(=O)NS(=O)(=O)C6CC6)C[C@H]5/C=C\CCCCN(C)C(=O)[C@@H]4C3)cc(-c3nc(C(C)C)cs3)nc2c1C` [simeprevir], the Kd (HCV NS3/4A D168E PR) was 33 nM, the “decreased simeprevir affinity compared to ‘WT’ (S139A)” value (“decreased simeprevir affinity” for short) (HCV NS3/4A D168E PR) was about 2 fold and the koff (HCV NS3/4A D168E PR) was 0.000665 s⁻¹. The kon (HCV NS3/4A D168E PR) was 20000 M⁻¹ s⁻¹, the Kd (HCV NS3/4A K136N PR) was 31.5 nM and the “decreased simeprevir affinity” value (HCV NS3/4A K136N PR) was about 2 fold. It also gave a koff (HCV NS3/4A K136N PR) of 0.00107 s⁻¹, a kon (HCV NS3/4A K136N PR) of 33800 M⁻¹ s⁻¹ and a Kd (HCV NS3/4A PR (S139A)) of 17.8 nM. The koff (HCV NS3/4A PR (S139A)) was 0.000495 s⁻¹, the kon (HCV NS3/4A PR (S139A)) was 27800 M⁻¹ s⁻¹ and the Kd (HCV NS3/4A K136D PR) was 62.6 nM. For the same compound, the “decreased simeprevir affinity” value (HCV NS3/4A K136D PR) was about 3.5 fold, the koff (HCV NS3/4A K136D PR) was 0.00234 s⁻¹ and the kon (HCV NS3/4A K136D PR) was 36200 M⁻¹ s⁻¹.
